From ChEMBL document CHEMBL1156660, “Alkaloids from the mushroom Pseudobaeospora pyrifera, pyriferines A-C” (J Nat Prod, 2008)

Target: Acetylcholinesterase (Homo sapiens) (UniProt P22303)
Assay: Inhibition of acetylcholinesterase at 100 uM by chemiluminescence method

Acetylcholinesterase (Homo sapiens), sequence (P22303 whole entry): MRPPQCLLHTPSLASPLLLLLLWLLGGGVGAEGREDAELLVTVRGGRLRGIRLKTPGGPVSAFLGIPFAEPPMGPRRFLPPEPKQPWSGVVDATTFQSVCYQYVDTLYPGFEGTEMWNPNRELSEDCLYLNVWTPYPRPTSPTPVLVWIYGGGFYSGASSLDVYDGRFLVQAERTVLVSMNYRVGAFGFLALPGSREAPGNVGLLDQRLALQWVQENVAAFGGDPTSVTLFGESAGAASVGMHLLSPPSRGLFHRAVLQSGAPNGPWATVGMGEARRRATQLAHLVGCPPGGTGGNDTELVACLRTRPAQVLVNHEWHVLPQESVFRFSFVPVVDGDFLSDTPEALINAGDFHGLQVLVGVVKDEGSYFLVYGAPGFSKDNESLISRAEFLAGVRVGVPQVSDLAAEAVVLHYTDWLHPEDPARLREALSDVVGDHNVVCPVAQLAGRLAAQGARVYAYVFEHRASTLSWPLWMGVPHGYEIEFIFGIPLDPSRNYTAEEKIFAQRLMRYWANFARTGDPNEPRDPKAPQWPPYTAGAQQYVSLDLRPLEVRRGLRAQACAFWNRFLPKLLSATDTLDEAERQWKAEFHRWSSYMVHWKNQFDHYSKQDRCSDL

SMILES | inhibition [%]
C=C1CC[C@@H](OC)C(O)=C1C(=O)C1(C)NC(=O)CC[C@H](N)C(=O)O1 (some centres not stated) | 7
CO[C@@H]1CC[C@](C)(O)C(C(=O)C2(C)NC(=O)CC[C@H](N)C(=O)O2)=C1O (some centres not stated) | 20
